Measured values from patent publication US10077264B2, “Derivatives and methods of treating hepatitis B infections” (Novira Therapeutics, Inc., priority 2014, dated 2018).

test system: HBV replication in HepG2.2.15 cells; experiment: HBV replication inhibition assay (BDNA assay); format: cell-based; settings: HepG2.2.15 cells, 6 days, encapsidated HBV DNA in supernatant; read-out: Activity in BDNA-assay (EC50)
Text: HBV replication inhibition by the compounds of this invention could be determined in cells infected or transfected with HBV, or cells with stably integrated HBV, such as HepG2.2.15 cells (Sells et al. 1987). In this example, HepG2.2.15 cells were maintained in cell culture medium containing 10% fetal bovine serum (FBS), Geneticin, L-glutamine, penicillin and streptomycin. HepG2.2.15 cells could be seeded in 96-well plates at a density of 40,000 cells/well and be treated with serially diluted compounds at a final DMSO concentration of 0.5% either alone or in combination by adding drugs in a checker box format. Cells were incubated with compounds for three days, after which medium was removed and fresh medium containing compounds was added to cells and incubated for another three days. At day 6, supernatant was removed and treated with DNase at 37° C. for 60 minutes, followed by enzyme inactivation at 75° C. for 15 minutes. Encapsidated HBV DNA was released from the virions and covalently linked HBV polymerase by incubating in lysis buffer (Affymetrix QS0010) containing […] proteinase K at 50° C. for 40 minutes. HBV DNA was denatured by addition of 0.2 M NaOH and detected using a branched DNA (BDNA) QuantiGene assay kit according to manufacturer recommendation (Affymetrix). HBV DNA levels could also be quantified using qPCR, based on amplification of encapsidated HBV DNA extraction with QuickExtraction Solution (Epicentre Biotechnologies) and amplification of HBV DNA using HBV specific PCR probes that can hybridize to HBV DNA and a fluorescently labeled probe for quantitation. In addition, cell viability of HepG2.2.15 cells incubated with test compounds alone or in combination was determined by using CellTitre-Glo reagent according to the manufacturer protocol (Promega). The mean background signal from wells containing only culture medium was subtracted from all other samples, and percent inhibition at each compound concentration was calculated by normalizing to signals from HepG2.2.15 cells treated with 0.5% DMSO using equation E1. % inhibition=(DMSOave−Xi)/DMSOave×100% E1: • where DMSOave is the mean signal calculated from the wells that were treated with DMSO control (0% inhibition control) and Xi is the signal measured from the individual wells. EC50 values, effective concentrations that achieved 50% inhibitory effect, were determined by non-linear fitting using Graphpad Prism software (San Diego, Calif.) and equation E2 Y=Ymin+(Ymax−Ymin)/(1+10(Log EC50−X)×HillSlope) E2: • where Y represents percent inhibition values and X represents the logarithm of compound concentrations.
Selected compounds of the invention were assayed in the HBV replication assay (BDNA assay), as described above and a representative group of these active compounds is shown in Table 3.

| Structure (SMILES) | EC50 |
| --- | --- |
| CC1Cc2[nH]nc(-c3cscn3)c2CN1C(=O)Nc1cccc(Br)c1 (stereo not drawn) [918 E2] | 10 to 100 nM |
| CC1Cc2[nH]nc(-c3cscn3)c2CN1C(=O)Nc1cccc(Br)c1F (stereo not drawn) [920 E2] | 10 to 100 nM |
| Cc1cc(NC(=O)N2Cc3c(-c4cscn4)n[nH]c3CC2C)ccc1F (stereo not drawn) [924 E2] | 10 to 100 nM |
| Cc1cccc(NC(=O)N2Cc3c(-c4cscn4)n[nH]c3CC2C)c1 (stereo not drawn) [923 E2] | 10 to 100 nM |
| CC1Cc2[nH]nc(-c3cscn3)c2CN1C(=O)Nc1ccc(F)c(Br)c1 (stereo not drawn) [919 E2] | 10 to 100 nM |
| CC1c2c(-c3ccccc3)n[nH]c2CCN1C(=O)Nc1cccc(Cl)c1 (single isomer, unassigned) [318 (E2), N-(3-chlorophenyl)-4-methyl-3-phenyl-1,4,6,7-tetrahydropyrazolo[4,3-c]pyridine-5-carboxamide] | 100 to 500 nM |

same assay, conditions: Hepatitis B virus, 144 h; HepG2.2.15 cells, 10 μM, 6 days, encapsidated HBV DNA in supernatant; read-out: Activity in BDNA-assay (activity at 10 μM)

| Structure (SMILES) | inhibition at 10 µM |
| --- | --- |
| Cc1ccc(OCC(=O)N2CCc3[nH]nc(-c4ccccc4)c3C2)cc1 [Compound 147] | > 50% |
| CC(OC(=O)N1CCc2[nH]nc(-c3ccccc3)c2C1)c1ccccc1 (stereo not drawn) [Compound 016, 1-phenylethyl 3-phenyl-1,4,6,7-tetrahydropyrazolo[4,3-c]pyridine-5-carboxylate] | > 50% |
| O=C(Nc1cccc(Cl)c1)N1CCc2[nH]nc(-c3cccc(F)c3)c2C1 [Compound 277, N-(3-chlorophenyl)-3-(3-fluorophenyl)-1,4,6,7-tetrahydropyrazolo[4,3-c]pyridine-5-carboxamide] | > 50% |
| N#Cc1ccc(OCC(=O)N2CCc3[nH]nc(-c4ccccc4)c3C2)cc1 [Compound 156] | > 50% |
| O=C(COc1ccc(F)cc1)N1CCc2[nH]nc(-c3ccccc3)c2C1 [Compound 144] | > 50% |
| O=C(COc1ccc(Cl)cc1)N1CCc2[nH]nc(-c3ccccc3)c2C1 [Compound 150] | > 50% |
| O=C(COc1cccc(C(F)(F)F)c1)N1CCc2[nH]nc(-c3ccccc3)c2C1 [Compound 164] | > 50% |
| O=C(C1COc2ccccc2O1)N1CCc2[nH]nc(-c3ccccc3)c2C1 (stereo not drawn) [Compound 171] | > 50% |
| O=C(COc1ccc(C(F)(F)F)cc1)N1CCc2[nH]nc(-c3ccccc3)c2C1 [Compound 165] | > 50% |
| O=C(C1C[C@H]1c1ccccc1)N1CCc2[nH]nc(-c3ccccc3)c2C1 (stereo in doubt) [Compound 030, (2-phenylcyclopropyl)-(3-phenyl-2,4,6,7-tetrahydropyrazolo[4,3-c]pyridin-5-yl)methanone] | > 50% |
| N#Cc1ccccc1OCC(=O)N1CCc2[nH]nc(-c3ccccc3)c2C1 [Compound 154] | > 50% |
| O=C(COc1ccccc1F)N1CCc2[nH]nc(-c3ccccc3)c2C1 [Compound 142] | > 50% |
| O=C(COc1cccc(Cl)c1)N1CCc2[nH]nc(-c3ccccc3)c2C1 [Compound 149] | > 50% |

same assay, conditions: Hepatitis B virus, HepG2.2.15, 144 h, HepG2.2.15 cells, 6 days, encapsidated HBV DNA in supernatant; read-out: Activity in BDNA-assay (EC50)

| Structure (SMILES) | EC50 |
| --- | --- |
| O=C(Nc1cccc(Cl)c1)N1CCc2[nH]nc(-c3cccnc3F)c2C1 [Compound 472, N-(3-chlorophenyl)-3-(2-fluoro-3-pyridyl)-1,4,6,7-tetrahydropyrazolo[4,3-c]pyridine-5-carboxamide] | 100 to 500 nM |
| Cn1cc(-c2n[nH]c3c2CN(C(=O)Nc2cccc(Cl)c2)CC3)cn1 [Compound 495, N-(3-chlorophenyl)-3-(1-methylpyrazol-4-yl)-1,4,6,7-tetrahydropyrazolo[4,3-c]pyridine-5-carboxamide] | 1000 to 1500 nM |
| CC1Cc2[nH]nc(-c3cscn3)c2CN1C(=O)Nc1ccnc(Br)c1F (stereo not drawn) [921 E1] | 10 to 100 nM |
| CC1CCCC(NC(=O)N2CCc3[nH]nc(-c4ccccc4)c3C2)C1 (stereo not drawn) [Compound 436] | 500 to 1000 nM |
| CC1Cc2[nH]nc(-c3cscn3)c2CN1C(=O)Nc1ccc(F)c(Cl)c1 (stereo not drawn) [917 E1, N-(3-chloro-4-fluoro-phenyl)-6-methyl-3-thiazol-4-yl-1,4,6,7-tetrahydropyrazolo[4,3-c]pyridine-5-carboxamide] | 10 to 100 nM |
| Cn1ccc(-c2n[nH]c3c2CN(C(=O)Nc2cccc(Cl)c2)CC3)n1 [Compound 555] | 100 to 500 nM |
| COc1cccc(-c2n[nH]c3c2CN(C(=O)Nc2cccc(Cl)c2)CC3)c1 [Compound 326, N-(3-chlorophenyl)-3-(3-methoxyphenyl)-1,4,6,7-tetrahydropyrazolo[4,3-c]pyridine-5-carboxamide] | 100 to 500 nM |
| O=C(Nc1cccc(Cl)c1)N1CCc2[nH]nc(-c3ccc(F)cc3)c2C1 [Compound 278, N-(3-chlorophenyl)-3-(4-fluorophenyl)-1,4,6,7-tetrahydropyrazolo[4,3-c]pyridine-5-carboxamide] | 100 to 500 nM |
| CC1Cc2[nH]nc(-c3cscn3)c2CN1C(=O)Nc1ccc(F)c(Br)c1 (stereo not drawn) [919 E1] | 10 to 100 nM |
| O=C(Nc1cccc(Cl)c1)N1CCc2[nH]nc(-c3ccccc3F)c2C1 [Compound 276, N-(3-chlorophenyl)-3-(2-fluorophenyl)-1,4,6,7-tetrahydropyrazolo[4,3-c]pyridine-5-carboxamide] | 100 to 500 nM |
| O=C(Nc1cccc(Cl)c1)N1CCc2ncn(-c3ccccc3)c2C1 [Compound 542, N-(3-chlorophenyl)-3-phenyl-6,7-dihydro-4H-imidazo[4,5-c]pyridine-5-carboxamide] | 500 to 1000 nM |
| O=C(Nc1cccc(Cl)c1)N1CCc2[nH]nc(-c3ccn[nH]3)c2C1 [Compound 497] | 100 to 500 nM |
| O=C(Nc1cccc(Cl)c1)N1CCc2[nH]nc(-c3ccncc3)c2C1 [Compound 287] | 100 to 500 nM |
| N#Cc1cc(NC(=O)N2CCc3[nH]nc(-c4ccccc4)c3C2)ccc1F [Compound 560] | 10 to 100 nM |
| COc1ccccc1-c1n[nH]c2c1CN(C(=O)Nc1cccc(Cl)c1)CC2 [Compound 327, N-(3-chlorophenyl)-3-(2-methoxyphenyl)-1,4,6,7-tetrahydropyrazolo[4,3-c]pyridine-5-carboxamide] | 100 to 500 nM |
| O=C(Nc1cccc(Cl)c1Cl)N1CCc2[nH]nc(-c3ccccc3)c2C1 [Compound 190] | 500 to 1000 nM |
| CC1Cc2[nH]nc(-c3cscn3)c2CN1C(=O)Nc1ccc(F)c(C#N)c1 (stereo not drawn) [922 E1] | 10 to 100 nM |

same assay, conditions: Hepatitis B virus, HepG2.2.15, 144 h, read-out: Activity in BDNA-assay (EC50)

| Structure (SMILES) | EC50 |
| --- | --- |
| O=C(Nc1ccccc1)N1CCc2[nH]nc(-c3ccccc3)c2C1 [Compound 022, N,3-diphenyl-1,4,6,7-tetrahydropyrazolo[4,3-c]pyridine-5-carboxamide] | 100 to 500 nM |

same assay, conditions: Hepatitis B virus, HepG2.2.15, 144 h, read-out: Activity in BDNA-assay (activity at 10 μM)

| Structure (SMILES) | inhibition at 10 µM |
| --- | --- |
| O=C(Oc1ccccc1)N1CCc2[nH]nc(-c3ccccc3)c2C1 [Compound 021, phenyl3-phenyl-1,4,6,7-tetrahydropyrazolo[4,3-c]pyridine-5-carboxylate] | > 50% |
| COc1ccc(-c2n[nH]c3c2CN(C(=O)Nc2cccc(Cl)c2)CC3)cc1 [Compound 325, N-(3-chlorophenyl)-3-(4-methoxyphenyl)-1,4,6,7-tetrahydropyrazolo[4,3-c]pyridine-5-carboxamide] | > 50% |
